This note sets out measurements from US11420922B2, “Hydroxylated tropolone inhibitors of nucleotidyl transferases in herpesvirus and Hepatitis B and uses therefor” (Saint Louis University, priority 2015, dated 2022).

Read-outs that look alike come from different tables or passages of the source. Some results are limits rather than exact numbers.

Series [1] in a line: Cytotoxicity reported with the HBV assay (Table 4). The following applies: human. Type of series: cell-based. The method, then: Qualitative assessments of cytotoxicity were done visually by inspecting the cells in the primary screening assays. For the quantitative assays, cells were plated in 96-well plates at 1.0×10^4 per well. The next day the compounds were added at 0.78 to 100 μM in a final concentration of 1% (v/v) DMSO, and the cells were incubated for 24 hours under conditions identical to those employed for the viral replication inhibition assays. Mitochondrial toxicity was measured by incubating the cells with 0.25 mg/mL thiazolyl blue tetrazolium bromide (MTT, Sigma Aldrich Chemical Co.), the cultures were incubated for 60 min, metabolites were solubilized in acidic isopropanol, and absorbance was read at 570 nm. CC50 values were calculated by non-linear curve fitting using GraphPad Prism.

The test system of another series is HSV-1. Put plainly: Anti-HSV-1 replication assay in Vero cells, titers by plaque assay. The following applies: Human alphaherpesvirus 1, Vero; for log reduction at 1.5 µM: read-out: HSV-1 Log suppression 1.5 μM; for log reduction at 5 µM / log reduction at 50 µM: 24 h; for log reduction at 5 µM: read-out: HSV-1 Log suppression 5 μM; for log reduction at 50 µM: read-out: HSV-1 Log suppression 50 μM. Type of series: cell-based, herpes simplex virus 1. As to the method: Vero cells were maintained in Dulbecco's modified Eagle's medium (DMEM) containing 3% newborn calf serum, 3% bovine growth serum, 2 mM L-glutamine and 100 IU/mL penicillin and 0.1 mg/mL streptomycin (P/S). HSV-1 #6 and HSV-2 #1 are de-identified clinical isolates from the Saint Louis University Hospital. Stocks were prepared after a single passage in cell culture and were titered by standard plaque assay (Knipe and Spang, 1982). Wild-type HSV-2 used in FIG. 3 was laboratory strain 333. […] Virus stocks were grown and titered on Vero cells (Morrison and Knipe, 1996).
Compounds to be screened were diluted in PBS supplemented to contain 2% newborn calf serum and 1% glutamine, and added in 100 μL volume to confluent cell monolayers in 24-well cluster plates. Immediately thereafter HSV-1 and HSV-2, diluted in the supplemented PBS medium, were added to the wells in 50 μl volume such that the final concentration of compound was 50 μM and 5 μM and the multiplicity of infection was 0.1. The plates were incubated at 37° C. for 1 hour and then virus-containing inoculum was removed and the wells were washed once in PBS. Compounds, diluted to 50 μM and 5 μM in DMEM supplemented to contain 2% newborn calf serum and 1% each penicillin/streptomycin, were added at 0.5 mL/well. Plates were incubated at 37° C. an additional 23 hr, and then the plates were visually inspected through a phase contrast microscope for cytopathic effect, and for toxic effect. […] The entire contents of each well were collected by scraping. Samples were frozen at −80° C., and then subsequently thawed, sonicated, and infectious virus titer was determined by standard plaque assay on Vero cell monolayers. Because the compounds were dissolved at 10 mM in 100% DMSO, equivalent dilutions of DMSO were added to additional wells as a control for effects of the diluent. Each experiment was repeated once. EC50 values were determined as above except that serial dilutions of the compound to be tested were prepared starting at 50 μM. The inhibitory values were calculated by non-linear curve-fitting in GraphPad Prism.

The next series relates to HSV-2. Nature of the series: Anti-HSV-2 replication assay in Vero cells, titers by plaque assay. It is filed as cell-based, herpes simplex virus 2. The following applies: for log reduction at 50 µM / log reduction at 5 µM: Human alphaherpesvirus 2, Vero, 24 h; for log reduction at 50 µM: read-out: HSV-2 Log suppression 50 μM; for log reduction at 5 µM: read-out: HSV-2 Log suppression 5 μM.

[2] abbreviates: hepatoma cells, read-out: CC50 (HBV assay table).
Where [3] appears, read: 5 μM, moi 0.1, 24 h, vs DMSO, +/− are qualitative, key not given.
[4] abbreviates: 50 μM, moi 0.1, 24 h, vs DMSO, +/−/T are qualitative, key not given.

Consider `O=c1c(O)ccc(Br)cc1O` [Compound 261], for which the CC50 at 24 h in series [1] (setting [2]) is greater than 100 µM.

Regarding `Cc1cc(O)c(=O)c(O)cc1-c1ccc(-c2ccc3ccccc3c2)cc1` [Compound 233], the log reduction at 1.5 µM in the series on HSV-1 amounted to 2.63.

As to `Cc1cc(O)c(=O)c(O)cc1C(=O)c1ccc(-c2cccc3ccccc23)cc1` [Compound 256], the log reduction at 1.5 µM with HSV-1 is 5.18.

In the case of `COC(=O)c1c(C)cc(OC)c(=O)c(O)c1OC` [Compound 269], the CC50 at 24 h in series [1] (setting [2]) is greater than 100 µM. In addition, in the series on HSV-1, the log reduction at 5 µM came to 1.48, the log reduction at 50 µM came to 3.76 and the log reduction at 1.5 µM worked out at 0.24. In addition, in the series on HSV-2 (1.5 μM), the “HSV-2 Log suppression 1.5 μM” value came out at 4.04 log10. In the series with HSV-2, the log reduction at 50 µM came to 4.67.

Regarding `O=c1c(O)cccc2cc(O)c(O)c(O)c12` [Compound 195, purpurogallin], in the series with HSV-1, the log reduction at 5 µM worked out at 0.17 and the log reduction at 50 µM was 0.2. Besides, in the series with HSV-2, the log reduction at 5 µM was -0.04 and the log reduction at 50 µM was found to be 0.11.

With `COC(=O)c1c(CCl)cc(O)c(=O)c(O)c1C(=O)OC` [Compound 107], in series [1] (setting [2]), the cytotoxic concentration (CC50) at 24 h worked out at 71 µM.

Consider `O=c1c(O)ccc(-c2cnc3ccccc3c2)cc1O` [Compound 267], for which, in series [1] (setting [2]), the CC50 at 24 h came out at 25 µM.

In the case of `Cc1cc(O)c(=O)c(O)cc1C(=O)c1ccc(-c2ccncc2)cc1` [Compound 260], the log reduction at 1.5 µM in the series with HSV-1 came to 0.5.

As for `O=c1c(O)ccc(-c2ccncc2)cc1O` [Compound 266], the 50% cytotoxic concentration (CC50) at 24 h in series [1] (setting [2]) came to 32 µM.

`COC(=O)c1cc(O)c(=O)c(OC)cc1C` [Compound 273]: in the series with HSV-1, the log reduction at 5 µM is 5.75, the log reduction at 50 µM came out at 6.05 and the log reduction at 1.5 µM amounted to 2.12. In addition, in the series with HSV-2, the log reduction at 5 µM turned out to be 6.32 and the log reduction at 50 µM is 6.9.

`COC(=O)c1cc(O)c(=O)c(O)cc1C` [Compound 274]: in series [1] (setting [2]), the CC50 at 24 h is greater than 100 µM. Besides, in the series on HSV-1, the log reduction at 1.5 µM was 0.59.

Regarding `O=c1c(O)ccc(-c2ccccc2)cc1O` [Compound 262], in series [1] (setting [2]), the CC50 at 24 h worked out at 96 µM.

As to `O=C1OCc2cc(O)c(=O)c(O)c(O)c21` [Compound 271], in the series with HSV-1, the log reduction at 5 µM was found to be 0.47, the log reduction at 50 µM came out at 1.87 and the log reduction at 1.5 µM came out at 0.21. In addition, in the series on HSV-2, the log reduction at 5 µM is 1.53 and the log reduction at 50 µM was determined as 2.94.

For `O=c1c(O)ccc(-c2ccco2)cc1O` [Compound 265], in series [1] (setting [2]), the CC50 at 24 h was determined as 40 µM.

Regarding `CCOC(=O)c1c(C)cc(O)c(=O)c(O)c1O` [Compound 270], in the series with HSV-1, the log reduction at 5 µM is 5.97 and the log reduction at 50 µM is 6.47. Besides, in the series on HSV-2, the log reduction at 5 µM amounted to 6.32 and the log reduction at 50 µM amounted to 6.9.

For the molecule `Cc1cc(O)c(=O)c(O)cc1-c1cccc(-c2cccc3ccccc23)c1` [Compound 234], the log reduction at 1.5 µM in the series on HSV-1 stood at 2.71.

For the molecule `COC(=O)c1c2c(cc(O)c(=O)c1O)COC2=O` [Compound 280], half-maximal cytotoxicity in series [1] (CC50 at 24 h) was put at 32 µM.

Take `Cc1ccc(O)c(=O)c(O)c1` [Compound 210]: in the series with HSV-1, the log reduction at 5 µM was 4.32 and the log reduction at 50 µM was 4.56. Further, in the series on HSV-2, the log reduction at 5 µM was 4.04 and the log reduction at 50 µM came out at 5.55.

With `O=c1c(O)ccc(-c2ccc(-c3ccccc3)cc2)cc1O` [Compound 264], in series [1] (setting [2]), the half-maximal cytotoxic concentration (CC50) at 24 h was 28 µM.

With `Nc1ccn(C[C@@H](CO)OCP(=O)(O)O)c(=O)n1` [CDV, Cidofovir, reference compound], the log reduction at 5 µM worked out at 0.77 with HSV-1 (setting [3]) and 0.38 in the series with HSV-2 (setting [3]). Besides, the figures for the log reduction at 50 µM in the series with HSV-1 (setting [4]) and in the series on HSV-2 (setting [4]) were 2.67 and 1.19, respectively.

As to `Cc1cc(O)c(=O)c(O)cc1C(=O)c1cccc(-c2ccccc2)c1` [Compound 255], the log reduction at 1.5 µM in the series on HSV-1 turned out to be 5.02.

One may read the CC50 as the concentration that lowers cell viability or growth by half.
